Measurements published in article PMC9626527, “SHR2285, the first selectively oral FXIa inhibitor in China: Safety, tolerability, pharmacokinetics and pharmacodynamics combined with aspirin, clopidogrel or ticagrelor” (Frontiers in Pharmacology, 2022).

Experiment: Plasma pharmacokinetics of co-administered aspirin (100 mg qd)/salicylic acid, clopidogrel (300 mg then 75 mg qd), ticagrelor (180 mg then 90 mg bid)/AR-C124910XX with SHR2285 or placebo
Procedure: For group A, the dosing regimen was aspirin + clopidogrel + placebo or SHR2285 200 mg. Specifically, aspirin: 100 mg was taken orally every morning from day 1 to day 6; clopidogrel: 300 mg in the morning of the first day, 75 mg in the morning of the second day to the sixth day; placebo or SHR2285 (1:3): 200 mg orally every morning and evening until the morning of the sixth day.
For group B, the dosing regimen was aspirin + clopidogrel + placebo or SHR2285 300 mg. The use of aspirin and clopidogrel was the same as that of group A; Placebo or SHR2285: added the amount to 300 mg based on group A.
For group C, the administration regimen was aspirin + ticagrelor + placebo or SHR2285 300 mg. The use of aspirin, placebo or SHR2285 was the same as that in group B. Clopidogrel in group B was adjusted to ticagrelor: 180 mg orally in the morning of the first day, 90 mg in the morning and evening from the second day to the morning of the sixth day.
PK blood collection points: the blood of each group was collected in the morning of day 1 before administration (within 1 h before administration), 4 h and 12 h after administration (before administration in the evening); in the morning of day 3, day 4, and day 5 before administration (within 1 h before administration), within 1 h before administration on the morning of the sixth day, and 0.5 h, 1 h, 1.5 h, 2 h, 2.5 h, 3 h, 4 h, 5 h, 6 h, 8 h, 10 h, 12 h, 15 h, 24 h, 36 h, and 48 h after administration. About 7 ml of venous blood was collected, and the plasma was collected for concentration determination of aspirin and its active metabolites (salicylic acid) and clopyridine (group A, group B), ticagrelor and its active metabolite AR-C124910XX (group C), SHR2285 and its active metabolite SHR164471.
Based on the actual sampling time, the PK parameters of each component were calculated as a non-compartmental model by WinNonlin (Certara United States Inc, version 8.1). The pharmacokinetic parameters after multiple administrations were investigated: Cmax, AUCtau, AUC0-last, AUC0-inf, Tmax, t1/2, CLss/F, Vss/F, Ctrough and Caverage. The main pharmacokinetic parameters such as AUC0-last, AUC0-inf and Cmax were tabulated and summarized by descriptive statistics.
After logarithmic conversion, the AUCss and Cmax of each component in the SHR2285 group (aspirin + clopidogrel/ticagrelor + SHR2285) and placebo group (aspirin + clopidogrel/ticagrelor + placebo) were statistically analyzed by ANOVA model. The medication group was used as the independent variable. The geometric mean ratio of the corresponding PK parameter (SHR2285/placebo group) and the estimated value of its 90% confidence interval was obtained by taking the exponential conversion from the mean difference estimated by the model (SHR2285 group-placebo group) and its 90% confidence interval. SHR2285 and its metabolite SHR164471, aspirin/salicylic acid, clopidogrel, ticagrelor and its metabolite AR-C124910XX were determined by Frontage Laboratories Co., Ltd. (Shanghai, China) using high-performance liquid chromatography-tandem mass spectrometry (HPLC-MS, Sciex API 4000). The chromatographic column is WATERS CORTECS®T3 (50 mm × 4.6 mm, id 2.7 μm), column temperature is set at 40°C. Mobile phase A is ultrapure water (containing 0.1% formic acid), and mobile phase B is acetonitrile/water (90:10, containing 0.1% formic acid). The elution gradient is: 0–0.4 min, A-B (50:50), 0.4–0.8 min, A-B (5:95), 0.8–2 min, A-B (5:95), 2–2.4 (50:50), 2.4–3.5 min, A-B (50:50). The total time was 3.5 min and the flow rate was 1.0 ml/min. The ion source was ESI source at positive ion mode. The heating capillary temperature was 400°C; CAD was nine; curtain gas was 30; GS1 (N2) was 50; GS2 (N2) was 50; The method used was multiple reaction monitoring (MRM), and the ion reactions used for quantitative analysis were m/z 545.1→408.0 (SHR2285) and m/z 721.2→408.1 (SHR164471), respectively.

[1] = Placebo (C) n=8: aspirin + ticagrelor + placebo, day 6
[2] = SHR2285 (C) n=12: aspirin + ticagrelor + SHR2285 300 mg bid, day 6

For CCCSc1nc(N[C@@H]2C[C@H]2c2ccc(F)c(F)c2)c2nnn([C@@H]3C[C@H](O)[C@@H](O)[C@H]3O)c2n1 [AR-C124910XX], the AUCtau [1] was 2490(38.3) h*ng/mL, the Cmax [1] was 389(35.4) ng/ml and the Tmax (Placebo (C) n=8: aspirin + ticagrelor + placebo, day 6, median (range)) was 1.5(1.0-2.5) h. The AUCtau [2] was 2280(26.4) h*ng/mL, the Cmax [2] was 367(28.1) ng/ml and the Tmax (SHR2285 (C) n=12: aspirin + ticagrelor + SHR2285 300 mg bid, day 6, median (range)) was 1.75(1.5-2.5) h. For the same compound, the “steady state in plasma” value (group C, six days after administration of ticagrelor) was “reached a steady state” and the Tmax (range across SHR2285 and placebo groups, day 6) was 1.5 to 1.75 h.
With COC(=O)[C@H](c1ccccc1Cl)N1CCc2sccc2C1 [Clopidogrel, clopidogrel] the Tmax (human, in vivo) was “one to 1.5”.
For CCCSc1nc(N[C@@H]2C[C@H]2c2ccc(F)c(F)c2)c2nnn([C@@H]3C[C@H](OCCO)[C@@H](O)[C@H]3O)c2n1 [Ticagrelor, ticagrelor], the “GLSMR of AUCtau (SHR2285 group/placebo group)” value (human, in vivo) was 0.929, the “GLSMR of Cmax (SHR2285 group/placebo group)” value (human, in vivo) was 1.06 and the Tmax (human, in vivo, Tmax) was 1.5 to 1.75 h. The “steady state in plasma” value (in vivo) was “reached a steady state”.
